Source: patent publication US20170050957A1, “4-AMINO-6-(HETEROCYCLIC)PICOLINATES AND 6-AMINO-2-(HETEROCYCLIC)PYRIMIDINE-4-CARBOXYLATES AND THEIR USE AS HERBICIDES” (Dow AgroSciences LLC, priority 2013, published 2017)
Read-outs that look alike come from different tables or passages of the source. One block for each compound: values may come before it.

How the values were obtained:
[1] = test system: Key Broadleaf Weed and Crop Species; test: Post-emergent Test II herbicidal activity (Table 15); assay type: in vivo; settings: post-emergence, 336 h, 14 d; for pest or weed control at 35 g/ha: 35 g ai/ha; for pest or weed control at 70 g/ha: 70 g ai/ha; for pest or weed control at 140 g/ha: 140 g ai/ha
How it was run: (§1)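 Visual injury rating (0 = none, 100% = complete kill) made 14 d after treatment, relative to untreated plants. Compounds in an acetone/DMSO/aqueous crop-oil/surfactant spray, at top rate and serial 1/2×-1/16× rates, were applied at 187 L/ha overhead to first-second true leaf plants raised 7-21 d in greenhouse.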

[2] = test system: Key Grass and Sedge Weeds as well as Grass Crops; test: Post-emergent Test II herbicidal activity (Table 16); assay type: in vivo; settings: post-emergence, 336 h, 14 d; for pest or weed control at 35 g/ha: 35 g ai/ha; for pest or weed control at 70 g/ha: 70 g ai/ha; for pest or weed control at 140 g/ha: 140 g ai/ha
How it was run: as §1

[3] = test system: sunflower (Helianthus annuus); test: Pre-emergent Test I herbicidal activity; assay type: in vivo; settings: 3.96 Kg ai/ha
Protocol: (§2) Pre-emergent Test I Seeds of test species were planted into round plastic pots (5-inch diameter) containing sandy loam soil. After planting, all pots were sub-irrigated 16 h prior to compound application. Compounds were dissolved in a 97:3 v/v (volume/volume) mixture of acetone and dimethyl sulfoxide (DMSO) and diluted to the appropriate concentration in a final application solution containing water, acetone, isopropanol, DMSO and Agri-dex (crop oil concentrate) in a 59:23:15:1.0:1.5 v/v ratio and 0.02% w/v (weight/volume) of Triton X-155 to obtain the spray solution containing the highest application rate. The high application rate was serial diluted with the above application solution to provide delivery of the compound at rates 1/2×, 1/4× and 1/8× of the highest rate (equivalent to 4.0, 2.0, 1.0, and 0.5 kg/ha, respectively). Formulated compound (2.7 mL) was applied pipetted evenly over the soil surface followed by incorporation with water (15 mL). Following treatment, pots were returned to the greenhouse for the duration of the experiment. The greenhouse was programmed for an approximate 15 h photoperiod which was maintained at about 23-29° C. during the day and 22-28° C. during the night. Nutrients and water were added on a regular basis through surface irrigation and supplemental lighting was provided with overhead metal halide 1000-Watt lamps as necessary. Herbicidal effect ratings were obtained 14 days after treatment. All evaluations were made relative to appropriate controls on a scale of 0 to 100 where 0 represents no herbicidal effect and 100 represents plant death or lack of emergence from the soil.

[4] = test system: ivyleaf morningglory (Ipomoea hederecea); test: Pre-emergent Test I herbicidal activity; assay type: in vivo; settings: 3.96 Kg ai/ha
Protocol: as §2

[5] = test system: barnyardgrass (Echinochloa crs-galli); test: Pre-emergent Test I herbicidal activity; assay type: in vivo; settings: 3.96 Kg ai/ha
Protocol: as §2

[6] = test system: giant foxtail (Setaria faberi); test: Pre-emergent Test I herbicidal activity; assay type: in vivo; settings: 3.96 Kg ai/ha
Protocol: as §2

wild oats (Avena fatua) = test: Pre-emergent Test I herbicidal activity; assay type: in vivo; settings: 3.96 Kg ai/ha
Protocol: as §2

undesirable vegetation = test: Herbicidal activity, comparison X is CF with X is CH; assay type: in vivo; settings: 1.08 and 1.09 vs 1.21 and 1.22; 1.15 and 1.16 vs 1.23 and 1.24; A is A15
[7] = Abutilon theophrasti, velvetleaf (Abutilon theophrasti), read-out: Visual Growth Reduction (%) 14 Days After Application, ABUTH
[8] = Amaranthus retroflexus, redroot pigweed (Amaranthus retroflexus), read-out: Visual Growth Reduction (%) 14 Days After Application, AMARE
[9] = Brassica napus, oilseed rape, canola (Brassica napus), read-out: Visual Growth Reduction (%) 14 Days After Application, BRSNN
[10] = Chenopodium album, lambsquarters (Chenopodium album), read-out: Visual Growth Reduction (%) 14 Days After Application, CHEAL
[11] = Euphorbia heterophylla, wild poinsettia (Euphorbia heterophylla), read-out: Visual Growth Reduction (%) 14 Days After Application, EPHHL
[12] = Helianthus annuus, sunflower (Helianthus annuus), read-out: Visual Growth Reduction (%) 14 Days After Application, HELAN
[13] = Cyperus esculentus, yellow nutsedge (Cyperus esculentus), read-out: Visual Growth Reduction (%) 14 Days After Application, CYPES
[14] = Echinochloa crus-galli, barnyardgrass (Echinochloa crus-galli), read-out: Visual Growth Reduction (%) 14 Days After Application, ECHCG
[15] = Oryza sativa, rice (Oryza sativa), read-out: Visual Growth Reduction (%) 14 Days After Application, ORYSA
[16] = Setaria faberi, giant foxtail (Setaria faberi), read-out: Visual Growth Reduction (%) 14 Days After Application, SETFA
[17] = Triticum aestivum, wheat, spring (Triticum aestivum), read-out: Visual Growth Reduction (%) 14 Days After Application, TRZAS
[18] = Zea mays, maize, corn (Zea mays), read-out: Visual Growth Reduction (%) 14 Days After Application, ZEAMX

Compound: COC(=O)c1nc(-c2ccc3ccn(C)c3c2)c(F)c(N)c1Cl [Compound 1.10]
- pest or weed control at 35 g/ha [1, 7]: 0 to 29%
- pest or weed control at 70 g/ha [1, 7]: 0 to 29%
- pest or weed control at 140 g/ha [1, 7]: 0 to 29%
- pest or weed control at 35 g/ha [1, 8]: 0 to 29%
- pest or weed control at 70 g/ha [1, 8]: 85 to 94%
- pest or weed control at 140 g/ha [1, 8]: 95 to 100%
- pest or weed control at 35 g/ha [1, 9]: 0 to 29%
- pest or weed control at 70 g/ha [1, 9]: 0 to 29%
- pest or weed control at 140 g/ha [1, 9]: 0 to 29%
- pest or weed control at 35 g/ha [1, 10]: 95 to 100%
- pest or weed control at 70 g/ha [1, 10]: 95 to 100%
- pest or weed control at 140 g/ha [1, 10]: 95 to 100%
- pest or weed control at 35 g/ha [1, 11]: 0 to 29%
- pest or weed control at 70 g/ha [1, 11]: 0 to 29%
- pest or weed control at 140 g/ha [1, 11]: 0 to 29%
- pest or weed control at 35 g/ha [1, 12]: 0 to 29%
- pest or weed control at 70 g/ha [1, 12]: 0 to 29%
- pest or weed control at 140 g/ha [1, 12]: 45 to 59%
- pest or weed control at 35 g/ha [2, 13]: 0 to 29%
- pest or weed control at 70 g/ha [2, 13]: 0 to 29%
- pest or weed control at 140 g/ha [2, 13]: 0 to 29%
- pest or weed control at 35 g/ha [2, 14]: 0 to 29%
- pest or weed control at 70 g/ha [2, 14]: 0 to 29%
- pest or weed control at 140 g/ha [2, 14]: 0 to 29%
- pest or weed control at 35 g/ha [2, 15]: 0 to 29%
- pest or weed control at 70 g/ha [2, 15]: 0 to 29%
- pest or weed control at 140 g/ha [2, 15]: 0 to 29%
- pest or weed control at 35 g/ha [2, 16]: 0 to 29%
- pest or weed control at 70 g/ha [2, 16]: 0 to 29%
- pest or weed control at 140 g/ha [2, 16]: 0 to 29%
- pest or weed control at 35 g/ha [2, 17]: 0 to 29%
- pest or weed control at 70 g/ha [2, 17]: 0 to 29%
- pest or weed control at 140 g/ha [2, 17]: 0 to 29%
- pest or weed control at 35 g/ha [2, 18]: 0 to 29%
- pest or weed control at 70 g/ha [2, 18]: 0 to 29%
- pest or weed control at 140 g/ha [2, 18]: 0 to 29%
- Visual Growth Reduction (%) 14 Days After Application HELAN [3]: G (0-29)
- Visual Growth Reduction (%) 14 Days After Application IPOHE [4]: G (0-29)
- Visual Growth Reduction (%) 14 Days After Application, ECHCG [5]: F (30-44)
- Visual Growth Reduction (%) 14 Days After Application, SETFA [6]: G (0-29)
- Visual Growth Reduction (%) 14 Days After Application AVEFA (wild oats (Avena fatua)): G (0-29)

- melting point: 138 to 140 °C
Compound: Nc1c(F)c(-c2ccc3cc[nH]c3c2)nc(C(=O)O)c1Cl [Compound 1.09]
- activity when X is CF compared with X is CH (undesirable vegetation): significant increase in activity
- pest or weed control at 35 g/ha [1, 7]: 95 to 100%
- pest or weed control at 70 g/ha [1, 7]: 95 to 100%
- pest or weed control at 140 g/ha [1, 7]: 95 to 100%
- pest or weed control at 35 g/ha [1, 8]: 95 to 100%
- pest or weed control at 70 g/ha [1, 8]: 95 to 100%
- pest or weed control at 140 g/ha [1, 8]: 95 to 100%
- pest or weed control at 35 g/ha [1, 9]: 95 to 100%
- pest or weed control at 70 g/ha [1, 9]: 95 to 100%
- pest or weed control at 140 g/ha [1, 9]: 95 to 100%
- pest or weed control at 35 g/ha [1, 10]: 95 to 100%
- pest or weed control at 70 g/ha [1, 10]: 95 to 100%
- pest or weed control at 140 g/ha [1, 10]: 95 to 100%
- pest or weed control at 35 g/ha [1, 11]: 85 to 94%
- pest or weed control at 70 g/ha [1, 11]: 95 to 100%
- pest or weed control at 140 g/ha [1, 11]: 95 to 100%
- pest or weed control at 35 g/ha [1, 12]: 95 to 100%
- pest or weed control at 70 g/ha [1, 12]: 95 to 100%
- pest or weed control at 140 g/ha [1, 12]: 95 to 100%
- pest or weed control at 35 g/ha [2, 13]: 30 to 44%
- pest or weed control at 70 g/ha [2, 13]: 75 to 84%
- pest or weed control at 140 g/ha [2, 13]: 85 to 94%
- pest or weed control at 35 g/ha [2, 14]: 95 to 100%
- pest or weed control at 70 g/ha [2, 14]: 95 to 100%
- pest or weed control at 140 g/ha [2, 14]: 95 to 100%
- pest or weed control at 35 g/ha [2, 15]: 0 to 29%
- pest or weed control at 70 g/ha [2, 15]: 0 to 29%
- pest or weed control at 140 g/ha [2, 15]: 0 to 29%
- pest or weed control at 35 g/ha [2, 16]: 85 to 94%
- pest or weed control at 70 g/ha [2, 16]: 85 to 94%
- pest or weed control at 140 g/ha [2, 16]: 85 to 94%
- pest or weed control at 35 g/ha [2, 17]: 0 to 29%
- pest or weed control at 70 g/ha [2, 17]: 0 to 29%
- pest or weed control at 140 g/ha [2, 17]: 0 to 29%
- pest or weed control at 35 g/ha [2, 18]: 60 to 74%
- pest or weed control at 70 g/ha [2, 18]: 75 to 84%
- pest or weed control at 140 g/ha [2, 18]: 75 to 84%
